Assay results: the supplement of paper PMC10307832

Legend:
Assay in all cases: relative viability (nuclei count vs DMSO), 5 days (fraction); higher = more cells survive
[1] = compound: CCn1c(-c2nonc2N)nc2cnc(Oc3cccc(NC(=O)c4ccc(OCCN5CCOCC5)cc4)c3)cc21 + CC1(C)CCC(c2ccc(Cl)cc2)=C(CN2CCN(c3ccc(C(=O)NS(=O)(=O)c4ccc(N[C@H](CCN5CCOCC5)CSc5ccccc5)c(S(=O)(=O)C(F)(F)F)c4)cc3)CC2)C1 [Navitoclax] (partner 0.5 µM)
How it was run: (§1)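 Relative viability was taken as the ratio of nuclei in treated wells to nuclei in vehicle wells. Lung cancer cell lines in 1536-well plates received compounds by pin tool one day after seeding, either one drug alone or a fixed anchor-drug dose plus five library-drug doses (not always all listed) in √10 steps. Nuclei were counted on 4× images after 5 days of treatment, and values are medians of duplicate plates.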

[2] = compound: CCn1c(-c2nonc2N)nc2cnc(Oc3cccc(NC(=O)c4ccc(OCCN5CCOCC5)cc4)c3)cc21 + COc1cc2c(Oc3ccc(NC(=O)C4(C(=O)Nc5ccc(F)cc5)CC4)cc3F)ccnc2cc1OCCCN1CCOCC1 [Foretinib] (partner 0.25 µM)
How it was run: as §1

[3] = compound: CCC1=CN=CN=C1N2CCN(CC2)CC3=NC4=C(N3)C=C(C=C4)C(F)(F)F + COc1cc2c(Oc3ccc(NC(=O)C4(C(=O)Nc5ccc(F)cc5)CC4)cc3F)ccnc2cc1OCCCN1CCOCC1 [Foretinib] (partner 0.25 µM)
How it was run: as §1

Mirin + Lapatinib = compound: N=C1NC(=O)/C(=C/c2ccc(O)cc2)S1 [Mirin] + CS(=O)(=O)CCNCc1ccc(-c2ccc3ncnc(Nc4ccc(OCc5cccc(F)c5)c(Cl)c4)c3c2)o1 [Lapatinib] (partner 2 µM)
How it was run: as §1

For UMC-11, the relative viability ([1]; first compound 0.04 µM) was 0.349, the relative viability ([1]; first compound 0.1265 µM) was 0.314 and the relative viability ([1]; first compound 0.4 µM) was 0.313. It also gave a relative viability ([1]; first compound 1.265 µM) of 0.151, a relative viability ([1]; first compound 4 µM) of 0.144 and a relative viability ([2]; first compound 0.04 µM) of 1.04. The relative viability ([2]; first compound 0.1265 µM) was 0.903, the relative viability ([2]; first compound 0.4 µM) was 0.68 and the relative viability ([2]; first compound 1.265 µM) was 0.245. For the same cell line, the relative viability ([2]; first compound 4 µM) was 0.186, the relative viability ([3]; first compound 0.04 µM) was 0.997 and the relative viability ([3]; first compound 0.1265 µM) was 0.932. It also gave a relative viability ([3]; first compound 0.4 µM) of 1, a relative viability ([3]; first compound 1.265 µM) of 0.898 and a relative viability ([3]; first compound 4 µM) of 0.96. It also gave a relative viability (Mirin + Lapatinib; first compound 0.25 µM) of 0.958, a relative viability (Mirin + Lapatinib; first compound 2.5 µM) of 0.985 and a relative viability (Mirin + Lapatinib; first compound 7.906 µM) of 0.548. For the same cell line, the relative viability (Mirin + Lapatinib; first compound 25 µM) was 0.684.
